Reference: patent publication US7732429B2 (Trustees of Tufts College, priority 1994, dated 2010)
≈ marks a conversion by molar mass, not a printed value.

How the values were obtained:
Format in all cases: cell-based
[1] = system: E. coli ML308; assay: susceptibility of tetracycline susceptible strains (MIC), C5 esters; details: E. coli ML308, susceptible strain, drug alone
[2] = system: S. aureus 450; assay: as above; details: S. aureus 450, susceptible strain, drug alone
[3] = system: E. faecalis ATCC 9790; assay: as above; details: E. faecalis ATCC 9790, susceptible strain, drug alone
[4] = system: E. coli DI-299 (Tet A); assay: MIC/MLC chart, analog with and without doxycycline; parameters: key to growth/killing, Analog + Doxy / growth/killing, Doxy Control / growth/killing, Analog Control / growth in MIC/MLC chart: +=growth; 0=no growth (MIC); ↓=killing; ? =99.9% killing (MLC); □=no growth, but no microbiologic testing;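 also: bacterial growth inhibition and killing in broth, each agent tested alone or combined with doxycycline across two-fold serial dilutions, overnight incubation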
[5] = system: S. aureus 4250 (Tet K); assay: MIC/MLC chart, analog with and without doxycycline
[6] = system: E. faecalis 158 (Tet L); assay: MIC/MLC chart, analog with and without doxycycline
[7] = system: E. faecalis 211 (Tet M); assay: MIC/MLC chart, analog with and without doxycycline

## C=C1c2cccc(O)c2C(=O)C2=C(O)C3(O)C(=O)C(C(N)=O)=C(O)C(N(C)C)C3C(OC(=O)CC)C12 (stereo not drawn) [Cmpd 2]
[1]
  MIC: 10 µg/mL (≈ 20.1 µM)
[2]
  MIC: 1.3 µg/mL (≈ 2.61 µM)
[3]
  MIC: .8 µg/mL (≈ 1.6 µM)
[4]; analog 1.56 + Doxy 1.55 μg/ml
  growth/killing, Analog + Doxy: +
[4]; analog 1.56 + Doxy 3.1 μg/ml
  growth/killing, Analog + Doxy: +
[4]; analog 1.56 + Doxy 6.2 μg/ml
  growth/killing, Analog + Doxy: +
[4]; analog 1.56 + Doxy 12.3 μg/ml
  growth/killing, Analog + Doxy: +
[4]; analog 3.12 + Doxy 1.53 μg/ml
  growth/killing, Analog + Doxy: +
[4]; analog 3.12 + Doxy 3.05 μg/ml
  growth/killing, Analog + Doxy: +
[4]; analog 3.12 + Doxy 6.1 μg/ml
  growth/killing, Analog + Doxy: +
[4]; analog 6.25 + Doxy 3.0 μg/ml
  growth/killing, Analog + Doxy: +
[4]; analog 6.25 + Doxy 5.9 μg/ml
  growth/killing, Analog + Doxy: +
[4]; analog 12.5 + Doxy 2.8 μg/ml
  growth/killing, Analog + Doxy: +
[4]; analog 12.5 + Doxy 5.5 μg/ml
  growth/killing, Analog + Doxy: +
[4]; analog .195 + Doxy 1.56 μg/ml
  growth/killing, Analog + Doxy: +
[4]; analog .195 + Doxy 3.12 μg/ml
  growth/killing, Analog + Doxy: +
[4]; analog .195 + Doxy 6.25 μg/ml
  growth/killing, Analog + Doxy: +
[4]; analog .195 + Doxy 12.5 μg/ml
  growth/killing, Analog + Doxy: +
[4]; analog .39 + Doxy 1.56 μg/ml
  growth/killing, Analog + Doxy: +
[4]; analog .39 + Doxy 3.12 μg/ml
  growth/killing, Analog + Doxy: +
[4]; analog .39 + Doxy 6.25 μg/ml
  growth/killing, Analog + Doxy: +
[4]; analog .39 + Doxy 12.5 μg/ml
  growth/killing, Analog + Doxy: +
[4]; analog .78 + Doxy 1.56 μg/ml
  growth/killing, Analog + Doxy: +
[4]; analog .78 + Doxy 3.12 μg/ml
  growth/killing, Analog + Doxy: +
[4]; analog .78 + Doxy 6.23 μg/ml
  growth/killing, Analog + Doxy: +
[4]; analog .78 + Doxy 12.4 μg/ml
  growth/killing, Analog + Doxy: +
[4]; analog alone 1.56 μg/ml
  growth/killing, Analog Control: +
[4]; analog alone 3.12 μg/ml
  growth/killing, Analog Control: +
[4]; analog alone 6.25 μg/ml
  growth/killing, Analog Control: +
[4]; analog alone 12.5 μg/ml
  growth/killing, Analog Control: +
[4]; analog alone 25.0 μg/ml
  growth/killing, Analog Control: +
[4]; analog alone .195 μg/ml
  growth/killing, Analog Control: +
[4]; analog alone .39 μg/ml
  growth/killing, Analog Control: +
[4]; analog alone .78 μg/ml
  growth/killing, Analog Control: +
[5]; analog .195 + Doxy 1.56 μg/ml
  growth/killing, Analog + Doxy: +
[5]; analog .195 + Doxy 3.12 μg/ml
  growth/killing, Analog + Doxy: +
[5]; analog .195 + Doxy 6.25 μg/ml
  growth/killing, Analog + Doxy: +
[5]; analog .39 + Doxy 1.56 μg/ml
  growth/killing, Analog + Doxy: +
[5]; analog .39 + Doxy 3.12 μg/ml
  growth/killing, Analog + Doxy: +
[5]; analog .39 + Doxy 6.25 μg/ml
  growth/killing, Analog + Doxy: +
[5]; analog .78 + Doxy 1.56 μg/ml
  growth/killing, Analog + Doxy: +
[5]; analog .78 + Doxy 3.12 μg/ml
  growth/killing, Analog + Doxy: +
[5]; analog alone 1.56 μg/ml
  growth/killing, Analog Control: +
[5]; analog alone .195 μg/ml
  growth/killing, Analog Control: +
[5]; analog alone .39 μg/ml
  growth/killing, Analog Control: +
[5]; analog alone .78 μg/ml
  growth/killing, Analog Control: +
[5]; with 1.55 μg/ml doxycycline (Chart 6B)
  MIC of analog in combination: 1.56 μg/ml
[5]; with 6.23 μg/ml doxycycline (Chart 6B)
  MIC of analog in combination: 0.78 μg/ml
[6]; analog .195 + Doxy 1.56 μg/ml
  growth/killing, Analog + Doxy: +
[6]; analog .195 + Doxy 3.12 μg/ml
  growth/killing, Analog + Doxy: +
[6]; analog .39 + Doxy 1.56 μg/ml
  growth/killing, Analog + Doxy: +
[6]; analog alone .195 μg/ml
  growth/killing, Analog Control: +
[6]; analog alone .39 μg/ml
  growth/killing, Analog Control: +
[6]; analog alone .78 μg/ml
  growth/killing, Analog Control: +
[7]; analog 1.56 + Doxy 1.55 μg/ml
  growth/killing, Analog + Doxy: +
[7]; analog 1.56 + Doxy 3.1 μg/ml
  growth/killing, Analog + Doxy: +
[7]; analog 1.56 + Doxy 6.2 μg/ml
  growth/killing, Analog + Doxy: +
[7]; analog 3.12 + Doxy 1.53 μg/ml
  growth/killing, Analog + Doxy: +
[7]; analog 3.12 + Doxy 3.05 μg/ml
  growth/killing, Analog + Doxy: +
[7]; analog 3.12 + Doxy 6.1 μg/ml
  growth/killing, Analog + Doxy: +
[7]; analog .195 + Doxy 1.56 μg/ml
  growth/killing, Analog + Doxy: +
[7]; analog .195 + Doxy 3.12 μg/ml
  growth/killing, Analog + Doxy: +
[7]; analog .195 + Doxy 6.25 μg/ml
  growth/killing, Analog + Doxy: +
[7]; analog .195 + Doxy 12.5 μg/ml
  growth/killing, Analog + Doxy: +
[7]; analog .39 + Doxy 1.56 μg/ml
  growth/killing, Analog + Doxy: +
[7]; analog .39 + Doxy 3.12 μg/ml
  growth/killing, Analog + Doxy: +
[7]; analog .39 + Doxy 6.25 μg/ml
  growth/killing, Analog + Doxy: +
[7]; analog .39 + Doxy 12.5 μg/ml
  growth/killing, Analog + Doxy: +
[7]; analog .78 + Doxy 1.56 μg/ml
  growth/killing, Analog + Doxy: +
[7]; analog .78 + Doxy 3.12 μg/ml
  growth/killing, Analog + Doxy: +
[7]; analog .78 + Doxy 6.23 μg/ml
  growth/killing, Analog + Doxy: +
[7]; analog .78 + Doxy 12.4 μg/ml
  growth/killing, Analog + Doxy: +
[7]; analog alone 1.56 μg/ml
  growth/killing, Analog Control: +
[7]; analog alone 3.12 μg/ml
  growth/killing, Analog Control: +
[7]; analog alone 6.25 μg/ml
  growth/killing, Analog Control: +
[7]; analog alone .195 μg/ml
  growth/killing, Analog Control: +
[7]; analog alone .39 μg/ml
  growth/killing, Analog Control: +
[7]; analog alone .78 μg/ml
  growth/killing, Analog Control: +
